Measurements: patent US7968600B2, “Medicament for preventive and therapeutic treatment of physical dysfunction caused by nerve damage” (Nanoegg Research Laboratories, Inc., priority 2007, dated 2011)

What was measured:
[1] = tested on: traumatic spinal cord injury model rats; experiment: Basso-Beattie-Bresnahan (BBB) score, motor function of the hind limb in traumatic spinal cord injury model rats; format: in vivo, Wistar rats; details: for BBB score: 21st day from the injury; for BBB scores compared to the control group (FIG. 1): time course after the injury
Procedure: (§1) 23 of 9 weeks old female Wistar rats had on their spinal cords of the thoracic vertebrae injured under anesthesia by loading a weight of 10 g dropped from a height of 2.5 cm to prepare traumatic spinal cord injury model rats with impaired motor function of the hind limb. The 23 rats were divided into the following 3 groups: • 1st Group: 8 rats were administered orally with 3 mg/kg of 4-[(5,6,7,8-tetrahydro-5,5,8,8-tetramethyl-2-naphthalenyl)carbamoyl]benzoic acid once before the injury and then once a day. • 2nd Group: 8 rats were administered with 0.15 mg/kg of 4-[(5,6,7,8-tetrahydro-5,5,8,8-tetramethyl-2-naphthalenyl)carbamoyl]benzoic acid directly to the injured site immediately after the injury, and then administered subcutaneously once a day near the injured area. • 3rd Group: 7 rats were administered orally with 1 ml/kg of 0.5% carboxymethyl cellulose (CMC) solution as a control group.
(§2) Administration was performed every day for 21 days after the injury for each group. The motor function of the hind limb was evaluated according to the Basso-Beattie-Bresnahan (BBB) score every day up to 21st day, and 28th day after the injury. For animals with BBB scores being 10 or more, evaluation of the motor function was performed by using a treadmill (manufactured by Muromachi Kikai Co., Ltd) on the 21st and the 28th day. The treadmill tests were performed for 5 minutes with velocity of the treadmill walking surface being kept at 8 m/min. In the test, a period of time during which the animal walked with four legs was measured, and in addition, total number of the contact of the animal with the end wall of the walking surface due to the stop walking of the animal was measured, thereby motor function was evaluated.

[2] = tested on: traumatic spinal cord injury model rats; experiment: Treadmill test (compulsory walking) in traumatic spinal cord injury model rats; format: in vivo, Wistar rats; details: for Number of contact to back end wall: 21st day from the injury, treadmill 8 m/min for 5 min, **p < 0.01; for number of the contact with the back end wall as compared to the control group / walking period as compared to the control group: treadmill test
Procedure: as §1, §2

regenerated nerves = details: 50 μL (10 nM RA); cited from earlier work

Row | SMILES | BBB score ([1]; oral 3.0 mg/kg once a day) | BBB scores compared to the control group (FIG. 1) ([1]; oral 3 mg/kg) | BBB score ([1]; subcutaneous 0.15 mg/kg once a day, *p < 0.05) | BBB scores compared to the control group (FIG. 1) ([1]; subcutaneous 0.15 mg/kg) | Number of contact to back end wall ([2]; oral 3.0 mg/kg once a day) | number of the contact with the back end wall as compared to the control group ([2]; oral administration) | walking period as compared to the control group ([2]; oral administration) | Number of contact to back end wall ([2]; subcutaneous 0.15 mg/kg once a day) | number of the contact with the back end wall as compared to the control group ([2]; subcutaneous administration) | walking period as compared to the control group ([2]; subcutaneous administration) | increase of regenerated nerves (regenerated nerves) [%] | recovery in nerve and motor functions (regenerated nerves)
1 | CC1(C)CCC(C)(C)c2cc(NC(=O)c3ccc(C(=O)O)cc3)ccc21 [4-[(5,6,7,8-tetrahydro-5,5,8,8-tetramethyl-2-naphthalenyl)carbamoyl]benzoic acid] | 11.43 ± 3.80 ^ | significantly improved BBB scores | 12.71 ± 2.28(*) | significantly improved BBB scores | 16.0 ± 8.3(**) | remarkable decrease | prolongation of the walking period | 13.4 ± 6.7(**) | remarkable decrease | prolongation of the walking period |  | 
2 | CC1=C(/C=C/C(C)=C/C=C/C(C)=C/C(=O)O)C(C)(C)CCC1 [Vitamin A acid, all-trans retinoic acid] |  |  |  |  |  |  |  |  |  |  | 30 | no recovery
